The target of this assay is T1, LXRβ (Homo sapiens, UniProt P55055).
T1 construct: Co-transfection expression plasmids, comprising full-length LXRα (pCMX-h LXRα[…] or LXRβ (pCMX-hLXRβ)); expressed in transfected cells; host or cells: CV-1 African Green Monkey Kidney Cells
T1 sequence (P55055 1-460): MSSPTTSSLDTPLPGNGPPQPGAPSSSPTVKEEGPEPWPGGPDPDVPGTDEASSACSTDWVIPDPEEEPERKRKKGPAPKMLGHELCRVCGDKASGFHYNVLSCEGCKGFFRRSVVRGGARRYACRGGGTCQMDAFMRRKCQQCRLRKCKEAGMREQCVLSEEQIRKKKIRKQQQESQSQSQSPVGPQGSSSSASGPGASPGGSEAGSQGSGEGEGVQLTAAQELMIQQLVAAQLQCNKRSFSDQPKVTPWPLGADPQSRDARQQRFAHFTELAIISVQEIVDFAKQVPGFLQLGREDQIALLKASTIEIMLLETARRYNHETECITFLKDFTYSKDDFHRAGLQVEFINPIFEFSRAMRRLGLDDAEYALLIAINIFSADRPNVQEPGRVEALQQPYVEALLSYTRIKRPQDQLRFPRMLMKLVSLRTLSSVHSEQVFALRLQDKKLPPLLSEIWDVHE
T1 sequence (P19793 1-462 partner): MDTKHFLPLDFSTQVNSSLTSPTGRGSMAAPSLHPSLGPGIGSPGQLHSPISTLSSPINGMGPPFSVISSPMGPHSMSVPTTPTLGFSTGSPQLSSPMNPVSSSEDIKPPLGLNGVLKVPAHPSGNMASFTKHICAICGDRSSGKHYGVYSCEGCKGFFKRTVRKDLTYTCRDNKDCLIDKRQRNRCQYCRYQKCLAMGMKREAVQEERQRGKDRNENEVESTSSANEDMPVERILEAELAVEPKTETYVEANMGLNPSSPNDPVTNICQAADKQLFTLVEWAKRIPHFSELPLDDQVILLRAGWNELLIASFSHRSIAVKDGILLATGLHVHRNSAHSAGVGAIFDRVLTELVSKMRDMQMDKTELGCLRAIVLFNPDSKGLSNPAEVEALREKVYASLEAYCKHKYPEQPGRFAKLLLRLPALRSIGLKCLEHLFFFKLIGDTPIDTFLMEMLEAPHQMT
As to the kind of experiment: Co-transfection assay (LXRE luciferase reporter), LXRβ. In kind it is cell-based. The note with it: for EC50: CV-1 cells transfected with pCMX-hLXRβ and LXREx1-Tk-Luciferase, 20 hours incubation; for Emax: LXRβ co-transfection, relative to high control 1-(2,4-difluorobenzyl)-2-oxo-6-(4-phenoxyphenyl)-4-(trifluoromethyl)-1,2-dihydropyridine-3-carbonitrile, read-out: % Efficacy. In a few lines:
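CV-1 / pCMX-hLXRβ + LXREx1-Tk-Luc + β-gal; cpd 20 h, 37 °C, ≤0.5% DMSO; Steady-Glo luminescence. 11-pt ½-log curves, duplicate wells, sigmoidal fit → EC50; % efficacy vs high-control agonist, DMSO low control; mean of ≥2 expts.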
On the technique in general: A reporter such as luciferase makes a cellular process visible.

Usually EC50 stands for the concentration that produces a half-maximal response. A low value points to a more potent agent.

Turning to `Cc1nc(C(F)(F)F)cn1-c1ccc(-c2cc(Cl)c(CO)c(S(C)(=O)=O)c2)cc1-n1nncc1-c1ccc(Cl)cc1Cl` [Example 18, {3-chloro-3′-[5-(2,4-dichlorophenyl)-1H-1,2,3-triazol-1-yl]-5-(methylsulfonyl)-4′-[2-methyl-4-(trifluoromethyl)-1H-imidazol-1-yl]biphenyl-4-yl}methanol], the EC50 worked out at 283 nM and the Emax amounted to 62%.

Regarding `Cc1nc(-c2cc(-c3cccc(S(C)(=O)=O)c3)ccc2-n2cc(C(F)(F)F)nc2C)c(-c2ccc(C(F)(F)F)cc2)o1` [Example 513, 2-methyl-4-(4-(2-methyl-4-(trifluoromethyl)-1H-imidazol-1-yl)-3′-(methylsulfonyl)biphenyl-3-yl)-5-(4-(trifluoromethyl)phenyl)oxazole], the EC50 was 137 nM and the Emax was determined as 64%.

As to `Cc1nc(C(F)(F)F)cn1-c1ccc(-c2cccc(S(C)(=O)=O)c2)cc1-n1nncc1C(F)(F)c1ccc(Cl)cc1` [Example 12, 5-[(4-chlorophenyl) (difluoro)methyl]-1-{3′-(methylsulfonyl)-4-[2-methyl-4-(trifluoromethyl)-1H-imidazol-1-yl]biphenyl-3-yl}-1H-1,2,3-triazole], the EC50 was determined as 133 nM and the Emax was 62%.

Turning to `Cc1nc(C(=O)NC(C)(C)C)cn1-c1ccc(-c2cccc(S(C)(=O)=O)c2)cc1-n1nncc1-c1ccc(OC(F)(F)F)cc1` [Example 152, N-(1,1-dimethylethyl)-2-methyl-1-[3′-(methylsulfonyl)-3-(5-{4-[(trifluoromethyl)oxy]phenyl}-1H-1,2,3-triazol-1-yl)biphenyl-4-yl]-1H-imidazole-4-carboxamide], the EC50 worked out at 1230 nM and the Emax was found to be 49%.

Consider `Cc1nc(C(F)(F)F)cn1-c1ccc(-c2cccc(C(C)(C)C(=O)O)c2)cc1-n1nncc1-c1ccc(OC(F)(F)F)cc1` [Example 95, 2-methyl-2-{4′-[2-methyl-4-(trifluoromethyl)-1H-imidazol-1-yl]-3′-(5-{4-[(trifluoromethyl)oxy]phenyl}-1H-1,2,3-triazol-1-yl)biphenyl-3-yl}propanoic acid], for which a half-maximal effect (EC50) was put at 2850 nM and the Emax amounted to 139%.

In the case of `CNS(=O)(=O)c1cccc(-c2ccc(-n3cc(C(F)F)nc3C)c(-n3nncc3C(C)c3ccc(Cl)cc3)c2)c1` (stereo not drawn) [Example 130, 3′-{5-[1-(4-chlorophenyl)ethyl]-1H-1,2,3-triazol-1-yl}-4′-[4-(difluoromethyl)-2-methyl-1H-imidazol-1-yl]-N-methylbiphenyl-3-sulfonamide], the EC50 came to 896 nM and the Emax was 68%.

With `Cc1nc(-c2cc(-c3cc(F)c(CO)c(S(C)(=O)=O)c3)ccc2-n2cc(C(F)(F)F)nc2C)c(-c2ccc(C(F)(F)F)nc2Cl)o1` [Example 477, (3′-(5-(2-chloro-6-(trifluoromethyl)pyridin-3-yl)-2-methyloxazol-4-yl)-3-fluoro-4′-(2-methyl-4-(trifluoromethyl)-1H-imidazol-1-yl)-5-(methylsulfonyl)biphenyl-4-yl)methanol], the EC50 came to 271 nM and the Emax is 66%.

As to `Cc1nc(C(F)(F)F)cn1-c1ccc(-c2cc(F)c(CO)c(S(C)(=O)=O)c2)cc1-c1nc(CCO)oc1-c1ccc(OC(F)(F)F)cc1` [Example 525, 2-(4-(3′-fluoro-4′-(hydroxymethyl)-4-(2-methyl-4-(trifluoromethyl)-1H-imidazol-1-yl)-5′-(methylsulfonyl)-[1,1′-biphenyl]-3-yl)-5-(4-(trifluoromethoxy)phenyl)oxazol-2-yl)ethanol], the EC50 is 650 nM and the Emax turned out to be 67%.

For the compound `Cc1nc(C(F)(F)F)cn1-c1ccc(-c2cc(F)c(CO)c(S(C)(=O)=O)c2)cc1-c1oc(CCO)nc1-c1ccc(OC(F)(F)F)cc1` [Example 612, 2-(5-(3′-fluoro-4′-(hydroxymethyl)-4-(2-methyl-4-(trifluoromethyl)-1H-imidazol-1-yl)-5′-(methylsulfonyl)-[1,1′-biphenyl]-3-yl)-4-(4-(trifluoromethoxy)phenyl)oxazol-2-yl)ethanol], a half-maximal effect (EC50) was put at 517 nM and the Emax was 64%.

In the case of `Cc1nc(C(F)(F)F)cn1-c1ccc(-c2ccc(CO)c(S(C)(=O)=O)c2)cc1-c1ccnn1-c1ccc2c(c1)OC(F)(F)O2` [Example 295, (3′-(1-(2,2-difluorobenzo[d][1,3]dioxol-5-yl)-1H-pyrazol-5-yl)-4′-(2-methyl-4-(trifluoromethyl)-1H-imidazol-1-yl)-3-(methylsulfonyl)biphenyl-4-yl)methanol], a half-maximal effect (EC50) was put at 40 nM and the Emax amounted to 80%.

Take `Cc1nc(C(F)(F)C(C)C)cn1-c1ccc(-c2cccc(S(C)(=O)=O)c2)cc1-n1nncc1-c1ccc(OC(F)(F)F)cc1` [Example 164, 1-{4-[4-(1,1-difluoro-2-methylpropyl)-2-methyl-1H-imidazol-1-yl]-3′-(methylsulfonyl)biphenyl-3-yl}-5-{4-[(trifluoromethyl)oxy]phenyl}-1H-1,2,3-triazole]: the EC50 was 203 nM and the Emax came out at 59%.

In the case of `Cc1nc(C(F)(F)F)cn1-c1ccc(-c2ccc(CO)c(S(C)(=O)=O)c2)cc1-n1nncc1-c1ccc(OC(F)(F)F)cc1` [Example 90, [3-(methylsulfonyl)-4′-[2-methyl-4-(trifluoromethyl)-1H-imidazol-1-yl]-3′-(5-{4-[(trifluoromethyl)oxy]phenyl}-1H-1,2,3-triazol-1-yl)biphenyl-4-yl]methanol], the response was half-maximal at 176 nM (EC50) and the Emax is 105%.

As for `CCC(F)(F)c1cn(-c2ccc(-c3cc(F)c(CO)c(S(C)(=O)=O)c3)cc2-n2nncc2-c2ccc(OC(F)(F)F)cc2)c(C)n1` [Example 186, {4′-[4-(1,1-difluoropropyl)-2-methyl-1H-imidazol-1-yl]-3-fluoro-5-(methylsulfonyl)-3′-(5-{4-[(trifluoromethyl)oxy]phenyl}-1H-1,2,3-txiazol-1-yl)biphenyl-4-yl}methanol], the EC50 turned out to be 168 nM and the Emax came to 81%.

Regarding `Cc1nc(-c2cc(-c3ccc(CO)c(S(C)(=O)=O)c3)ccc2-n2cc(C(F)(F)F)nc2C)c(-c2ccc(F)c(F)c2)o1` [Example 512, (3′-(5-(3,4-difluorophenyl)-2-methyloxazol-4-yl)-4′-(2-methyl-4-(trifluoromethyl)-1H-imidazol-1-yl)-3-(methylsulfonyl)biphenyl-4-yl)methanol], the EC50 turned out to be 136 nM and the Emax was 71%.

As to `Cc1cc(-c2cc(-c3cc(F)c(CO)c(S(C)(=O)=O)c3)ccc2-n2cc(C(F)(F)F)nc2C)n(-c2ccc(Cl)cc2)n1` [Example 290, {3′-[1-(4-chlorophenyl)-3-methyl-1H-pyrazol-5-yl]-3-fluoro-5-(methylsulfonyl)-4′-[2-methyl-4-(trifluoromethyl)-1H-imidazol-1-yl]biphenyl-4-yl}methanol], the EC50 is 30 nM and the Emax amounted to 43%.

Turning to `Cc1nc(-c2cc(-c3cc(F)c(CO)c(S(C)(=O)=O)c3)ccc2-n2cc(C(F)(F)F)nc2C)c(-c2ccc3c(c2)C(O)C(F)(F)O3)o1` (stereo not drawn) [Example 487, 2,2-difluoro-5-(4-(3′-fluoro-4′-(hydroxymethyl)-4-(2-methyl-4-(trifluoromethyl)-1H-imidazol-1-yl)-5′-(methylsulfonyl)biphenyl-3-yl)-2-methyloxazol-5-yl)-2,3-dihydrobenzofuran-3-ol], the EC50 came to 815 nM and the Emax is 59%.

As for `Cc1nc(C(C)(F)F)cn1-c1ccc(-c2cccc(S(C)(=O)=O)c2)cc1-n1nncc1-c1ccc(OC(F)(F)F)cc1` [Example 165, 1-{4-[4-(1,1-difluoroethyl)-2-methyl-1H-imidazol-1-yl]-3′-(methylsulfonyl)biphenyl-3-yl}-5-{4-[(trifluoromethyl)oxy]phenyl}-1H-1,2,3-triazole], the EC50 is 643 nM and the Emax was 66%.

For the compound `Cc1nc(C(F)(F)F)cn1-c1ccc(-c2cccc(S(C)(=O)=O)c2)cc1-n1nncc1-c1ccc(N2CCCC2)cc1` [Example 51, 1-{3′-(methylsulfonyl)-4-[2-methyl-4-(trifluoromethyl)-1H-imidazol-1-yl]biphenyl-3-yl}-5-(4-pyrrolidin-1-ylphenyl)-1H-1,2,3-triazole], the EC50 was 158 nM and the Emax came out at 107%.

For the origin of these results see patent publication US9834542B2, “LXR modulators” (BRISTOL-MYERS SQUIBB COMPANY, priority 2013, dated 2017).
